Results from patent US10227343B2, “Isoquiniline and napthalene-substituted compounds as mGluR4 allosteric potentiators, compositions, and methods of treating neurological dysfunction” (Vanderbilt University, priority 2015, dated 2019).

System: haloperidol induced catalepsy
Assay: reversal of haloperidol induced catalepsy
Assay type: in vivo, Sprague-Dawley rats
Details: rats, haloperidol 1.5 mg/kg i.p., compound 0.1-56.6 mg/kg oral, tested 30 minutes after compound; data in FIG. 5
Procedure: Animals. Male Sprague-Dawley rats weighing between 275 and 300 g (Harlan Laboratories, Indianapolis, Ind.) were used for the behavioral studies and were maintained in accordance with American Association for the Accreditation of Laboratory Animal Care guidelines under a 12-h light/dark cycle (lights on at 6 AM, lights off at 6 PM) with free access to food and water. The experimental procedures, which were performed during the light cycle, were approved by the Institutional Animal Care and Use Committee of Vanderbilt University and conformed to the guidelines established by the National Research Council Guide for the Care and Use of laboratory Animals. Rats were injected with haloperidol (1.5 mg/kg, i.p., dissolved in 8.5% lactic acid, pH=6) 60 minutes prior to the oral administration of Example 46 ((0.1-56.6 mg/kg) or vehicle (10% Tween 80). 30 minutes after compound administration all rats were tested for catalepsy. Catalepsy was assessed using a horizontal bar placed 6 cm from the testing surface. The forepaws of each rat were placed gently on the bar with the body positioned at an angle of ˜45° to the testing surface. The latency in seconds required for the rat to remove one or both forepaws from the bar was manually measured with a cutoff of 30 seconds.

Q: FC(F)(F)c1nccc2cc(Nc3n[nH]c4ncccc34)ccc12 [Example 46, N-(1H-pyrazolo[3,4-b]pyridin-3-yl)-1-(trifluoromethyl) isoquinolin-6-amine] was tested. Which “reversal of haloperidol induced catalepsy” value did it give?
A: reversal of haloperidol induced catalepsy
